Results from ChEMBL document CHEMBL1944507, “Structure-activity relationships for amide-, carbamate-, and urea-linked analogues of the tuberculosis drug (6S)-2-nitro-6-{[4-(trifluoromethoxy)benzyl]oxy}-6,7-dihydro-5H-imidazo[2,1-b][1,3]oxazine (PA-824)” (J Med Chem, 2012).
Converted amounts (≈) assume the structure as drawn.

Tested on: Mycobacterium tuberculosis variant bovis
Test: Antimicrobial activity against Mycobacterium bovis
Type: functional

Row | SMILES | MIC [µM]
1 | O=C(N[C@@H]1COc2nc([N+](=O)[O-])cn2C1)c1ccc(OC(F)(F)F)cc1 | 1.34 (≈ 0.499 µg/mL)
2 | O=C(N[C@@H]1COc2nc([N+](=O)[O-])cn2C1)OCc1ccc(OC(F)(F)F)cc1 | 0.037 (≈ 0.0149 µg/mL)
3 | O=C(Nc1ccc(OC(F)(F)F)cc1)N[C@@H]1COc2nc([N+](=O)[O-])cn2C1 | 0.039 (≈ 0.0151 µg/mL)
4 | O=C(Nc1ccc(OC(F)(F)F)cc1)O[C@@H]1COc2nc([N+](=O)[O-])cn2C1 | 0.039 (≈ 0.0151 µg/mL)
5 | O=C(NCc1ccc(OC(F)(F)F)cc1)O[C@@H]1COc2nc([N+](=O)[O-])cn2C1 | 0.075 (≈ 0.0302 µg/mL)
6 | O=[N+]([O-])c1cn2c(n1)OC[C@@H](OCc1ccc(OC(F)(F)F)cc1)C2 [PRETOMANID] | 0.167 (≈ 0.06 µg/mL)
